According to patent US10167299B2, “1-(3-aminopropyl) substituted cyclic amine compounds, preparation method therefor, and pharmaceutical compositions and uses thereof” (SHANGHAI INSTITUTE OF MATERIA MEDICA, CHINESE ACADEMY OF …, priority 2013, dated 2019):
Values after ≈ are worked out from the molar mass of the structure shown. Where two headings read alike, the source gives them in different places.

How the values were obtained:
HIV-1SF162 virus strain = test: Inhibition activity on TZM-bl cells infected with HIV-1SF162
[1] = Cytotoxicity (CC50) in TZM-bl cells; type: cell-based; conditions: human
CCR5 = CCR5 (Homo sapiens (Human), UniProt P51681); test: Calcium flux inhibition experiment; type: cell-based; conditions: for calcium influx inhibition effect in words, versus positive control compounds: conclusion from Table 1
Sequence of CCR5 (P51681 whole entry): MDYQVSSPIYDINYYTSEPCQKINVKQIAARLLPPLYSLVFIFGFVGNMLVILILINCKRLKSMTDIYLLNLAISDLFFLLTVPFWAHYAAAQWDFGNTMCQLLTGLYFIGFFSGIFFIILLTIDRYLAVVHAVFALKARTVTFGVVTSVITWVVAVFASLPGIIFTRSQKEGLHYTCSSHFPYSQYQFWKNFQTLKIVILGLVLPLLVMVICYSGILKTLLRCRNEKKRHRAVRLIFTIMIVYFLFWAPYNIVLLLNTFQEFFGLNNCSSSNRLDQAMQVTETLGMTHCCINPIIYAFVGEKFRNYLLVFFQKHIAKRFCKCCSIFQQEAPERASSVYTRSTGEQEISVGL
From the text: Experiment apparatus: FlexStation II
Experiment materials: HEK293/CCR5-Gα16 cell line, Fluo-4calcium dye (fluorescent-4 calcium ion dye) and FlexStation instrument.
Experiment theory: Activation of the receptor can cause the activation of Gα16 protein, thereby activating phospholipase C (PLC) to generate IP3 and DAG by establishing CCR5 and Ga16 co-transfected cell line. IP3 can bind to IP3 receptors on the endoplasmic reticulum and mitochondria in a cell, which can cause the release of intracellular calcium. Thus, determination of changes in intracellular calcium can be used as a method to detect CCR5 activation state. Fluo-4/AM is a fluorescent probe indicator for calcium used to measure calcium ion. As a non-polar lipid-soluble compound, after it enters into cells, AM group is dissociated to release Fluo-4 under the effect of cell lipolysis enzyme. Fluo-4 is a polar molecule and not easy to go through the lipid bilayer membrane, therefore it can stay within the cells for a long time. Ultimately, the level of activated Ga protein can be reflected by measuring the excited fluorescence intensity. If the screened compound can activate CCR5, it can greatly increase the calcium flux reaction; on the contrary, if the screened compound can antagonize CCR5, it can greatly reduce calcium flux reaction.
1. HEK293 cells which can stably express CCR5 were inoculated in a 96-well plate and incubated overnight.
2. The medium in each well into which cells were innoculated was removed and 40 μl/well of freshly prepared dye was added. The plate was placed in a 37° C. incubator and incubated for 40 minutes at constant temperature.
3. The medicament to be determined was diluted with calcium buffer to eight concentration gradients, which is 1×10^−4 M, 1×10^−5 M, 1×10^−6 M, 1×10^−7 M, 1×10^−8 M, 1×10^−9 M, 1×10^−10 M, and 1×10^−11 M, respectively, and homogeneously mixed.
4. The dye was removed. Freshly prepared calcium buffer was used to wash for one time, 50 μl of calcium buffer was added.
5. FlexStation II was used for detection. 25 μl of calcium buffer containing the medicament to be determined was added automatically from the 15th second.

[2] = HEK293/CCR5-Gα16 cell line, calcium flux, read-out: CCR5 IC50

Compound | IC50 (CCR5; [2]) [nM] | calcium influx inhibition effect in words, versus positive control compounds (CCR5) | other results
Cc1nnc(C(C)C)n1C1CC2CCC(C1)N2CC[C@H](NC(=O)C1CCC(F)(F)CC1)c1csc2ccccc12 (stereo partly drawn) [Compound 27, 4,4-difluoro-N-[(1S)-3-[exo-3-(3-isopropyl-5-methyl-4H-1,2,4-triazol-4-yl)-8-azabicyclo[3.2.1]octane-8-yl]-1-(benzothiophen-3-yl)propyl]cyclohexane-1-carboxamide] | – | – | EC50 (HIV-1SF162 virus strain; Human immunodeficiency virus 1, TZM-bl): 0.511 µg/mL (≈ 0.897 µM); therapeutic index (TI) (HIV-1SF162 virus strain; TZM-bl cells infected with HIV-1SF162): 188.14; CC50 at 3 days [1]: 96.1 µg/mL (≈ 169 µM)
Cc1nnc(C(C)C)n1C1CC2CCC(C1)N2CC[C@H](NC(=O)C1CCCC1)c1nccs1 (stereo partly drawn) [Compound 117, N-[(1S)-3-[exo-3-(3-isopropyl-5-methyl-4H-1,2,4-triazol-4-yl)-8-azabicyclo[3.2.1]octane-8-yl]-1-(thiazol-2-yl)propyl]cyclopentane-1-carboxamide] | 16.1 | – | –
CC(=O)Nc1ccc([C@H](CCN2C3CCC2CC(n2c(C)nnc2C(C)C)C3)NC(=O)C2CCCC2)s1 (stereo partly drawn) [Compound 139, N-[(1S)-3-[exo-3-(3-isopropyl-5-methyl-4H-1,2,4-triazol-4-yl)-8-azabicyclo[3.2.1]octane-8-yl]-1-(5-acetamidothiophen-2-yl)propyl]cyclopentane-1-carboxamide] | 12.3 | – | –
COc1ccc([C@H](CCN2C3CCC2CC(n2c(C)nnc2C(C)C)C3)NC(=O)CC#N)s1 (stereo partly drawn) [Compound 166, N-[(1S)-3-[exo-3-(3-isopropyl-5-methyl-4H-1,2,4-triazol-4-yl)-8-azabicyclo[3.2.1]octane-8-yl]-1-(5-methoxythiophen-2-yl)propyl]-2-cyanoacetamide] | – | better than the positive control compounds | IC50 (CCR5): 6.54 nM
Cc1nnc(C(C)C)n1C1CC2CCC(C1)N2CC[C@H](NC(=O)C1CCN(S(C)(=O)=O)CC1)c1ccc(F)s1 (stereo partly drawn) [Compound 151, N-[(1S)-3-[exo-3-(3-isopropyl-5-methyl-4H-1,2,4-triazol-4-yl)-8-azabicyclo[3.2.1]octane-8-yl]-1-(5-fluorothiophen-2-yl)propyl]-1-methylsulfonylpiperidine-4-carboxamide] | 3.45 | better than the positive control compounds | –
CC(=O)N[C@@H](CCN1C2CCC1CC(n1c(C)nc3c1CCN(C(=O)C(C)C)C3)C2)c1ccc(C#N)s1 (stereo partly drawn) [Compound 143, N-{(1S)-3-[(3-endo)-3-(5-isobutyryl-2-methyl-4,5,6,7-tetrahydro-1H-imidazo[4,5-c]pyridin-1-yl)-8-azabicyclo[3.2.1]octane-8-yl]-1-(5-cyanothiophen-2-yl)-propyl}acetamide] | 13.9 | – | –
Cc1nnc(C(C)C)n1C1CC2CCC(C1)N2CC[C@H](NC(=O)Cc1nnn[nH]1)c1ccc(C#N)s1 (stereo partly drawn) [Compound 161, N-[(1S)-3-[exo-3-(3-isopropyl-5-methyl-4H-1,2,4-triazol-4-yl)-8-azabicyclo[3.2.1]octane-8-yl]-1-(5-cyanothiophen-2-yl)propyl]-2-(1H-tetrazol-5-yl)acetamide] | – | comparable to the positive control compounds | IC50 (CCR5): 8.36 nM
Cc1nnc(C(C)C)n1C1CC2CCC(C1)N2CC[C@H](NC(=O)Cn1cnnn1)c1cccs1 (stereo partly drawn) [Compound 172, N-[(1S)-3-[exo-3-(3-isopropyl-5-methyl-4H-1,2,4-triazol-4-yl)-8-azabicyclo[3.2.1]octane-8-yl]-1-(thiophen-2-yl)propyl]-2-(1H-tetrazol-1-yl)acetamide] | 9.38 | better than the positive control compounds | –
Cc1nnc(C(C)C)n1C1CC2CCC(C1)N2CC[C@H](NC(=O)C1CCN(S(C)(=O)=O)CC1)c1cccs1 (stereo partly drawn) [Compound 146, N-[(1S)-3-[exo-3-(3-isopropyl-5-methyl-4H-1,2,4-triazol-4-yl)-8-azabicyclo[3.2.1]octane-8-yl]-1-(thiophen-2-yl)propyl]-1-methylsulfonylpiperidine-4-carboxamide] | 1.75 | better than the positive control compounds | –
COc1ccc([C@H](CCN2C3CCC2CC(n2c(C)nnc2C(C)C)C3)NC(=O)Cc2nnn[nH]2)s1 (stereo partly drawn) [Compound 160, N-[(1S)-3-[exo-3-(3-isopropyl-5-methyl-4H-1,2,4-triazol-4-yl)-8-azabicyclo[3.2.1]octane-8-yl]-1-(5-methoxythiophen-2-yl)propyl]-2-(1H-tetrazol-5-yl)acetamide] | – | better than the positive control compounds | IC50 (CCR5): 1.34 nM
Cc1ccc([C@H](CCN2C3CCC2CC(n2c(C)nnc2C(C)C)C3)NC(=O)C2CCN(S(C)(=O)=O)CC2)s1 (stereo partly drawn) [Compound 147] | 2.48 | better than the positive control compounds | –
CNC(=O)c1ccc([C@H](CCN2C3CCC2CC(n2c(C)nnc2C(C)C)C3)NC(=O)C2CCCCC2)s1 (stereo partly drawn) [Compound 141, 5-[(1S)-1-(cyclohexaneformamido)-3-[exo-3-(3-isopropyl-5-methyl-4H-1,2,4-triazol-4-yl)-8-azabicyclo[3.2.1]octane-8-yl]-propyl]-N-methylthiophene-2carboxamide] | 8.36 | comparable to the positive control compounds | –
Cc1ccc([C@H](CCN2C3CCC2CC(n2c(C)nnc2C(C)C)C3)NC(=O)Cc2nnn[nH]2)s1 (stereo partly drawn) [Compound 159, N-[(1S)-3-[exo-3-(3-isopropyl-5-methyl-4H-1,2,4-triazol-4-yl)-8-azabicyclo[3.2.1]octane-8-yl]-1-(5-methylthiophen-2-yl)propyl]-2-(1H-tetrazol-5-yl)acetamide] | 8.76 | comparable to the positive control compounds | –
COC(=O)c1ccc([C@H](CCN2C3CCC2CC(n2c(C)nnc2C(C)C)C3)NC(=O)C2CCC(F)(F)CC2)s1 (stereo partly drawn) [Compound 88, 4,4-difluoro-N-[(1S)-3-[exo-3-(3-isopropyl-5-methyl-4H-1,2,4-triazol-4-yl)-8-azabicyclo[3.2.1]octane-8-yl]-1-(5-methoxycarbonylthiophen-2-yl)propyl]cyclohexane-1-carboxamide] | 9.26 | – | –
CCc1ccc([C@H](CCN2C3CCC2CC(n2c(C)nnc2C(C)C)C3)NC(=O)C2CCCCC2)s1 (stereo partly drawn) [Compound 65, N-[(1S)-3-[exo-3-(3-isopropyl-5-methyl-4H-1,2,4-triazol-4-yl)-8-azabicyclo[3.2.1]octane-8-yl]-1-(5-ethylthiophen-2-yl)propyl]cyclohexane-1-carboxamide] | 1.62 | better than the positive control compounds | –
Cc1nnc(C(C)C)n1C1CC2CCC(C1)N2CC[C@H](NC(=O)Cc1nnn[nH]1)c1ccc(Cl)s1 (stereo partly drawn) [Compound 162, N-[(1S)-3-[exo-3-(3-isopropyl-5-methyl-4H-1,2,4-triazol-4-yl)-8-azabicyclo[3.2.1]octane-8-yl]-1-(5-chlorothiophen-2-yl)propyl]-2-(1H-tetrazol-5-yl)acetamide] | 1.85 | better than the positive control compounds | –
Cc1nnc(C(C)C)n1C1CC2CCC(C1)N2CC[C@H](NC(=O)C1CCN(S(C)(=O)=O)CC1)c1ccc(Cl)s1 (stereo partly drawn) [Compound 150, N-[(1S)-3-[exo-3-(3-isopropyl-5-methyl-4H-1,2,4-triazol-4-yl)-8-azabicyclo[3.2.1]octane-8-yl]-1-(5-chlorothiophen-2-yl)propyl]-1-methylsulfonylpiperidine-4-carboxamide] | 2.22 | better than the positive control compounds | –
COc1ccc([C@H](CCN2C3CCC2CC(n2c(C)nnc2C(C)C)C3)NC(=O)C2CCN(S(C)(=O)=O)CC2)s1 (stereo partly drawn) [Compound 148, N-[(1S)-3-[exo-3-(3-isopropyl-5-methyl-4H-1,2,4-triazol-4-yl)-8-azabicyclo[3.2.1]octane-8-yl]-1-(5-methoxythiophen-2-yl)propyl]-1-methylsulfonylpiperidine-4-carboxamide] | 3.42 | better than the positive control compounds | –
CCC(=O)N[C@@H](CCN1C2CCC1CC(n1c(C)nc3c1CCN(C(C)=O)C3)C2)c1nccs1 (stereo partly drawn) [Compound 124, N-{(1S)-3-[(3-endo)-3-(5-acetyl-2-methyl-4,5,6,7-tetrahydro-1H-imidazo[4,5-c]pyridin-1-yl)-8-azabicyclo[3.2.1]octane-8-yl]-1-(thiazol-2-yl)-propyl}propanamide] | 11.2 | better than the positive control compounds | –
COc1ccc([C@H](CCN2C3CCC2CC(n2c(C)nnc2C(C)C)C3)NC(=O)Cn2ncnn2)s1 (stereo partly drawn) [Compound 154] | – | – | IC50 (CCR5): 23.1 nM
